Experimental data as given in patent publication EP4227307A1 (Genzyme Corporation, priority 2022, dated 2023).
Counter-ions that a name gives are not always drawn.

Molecular target: T1, human recombinant 6His-Nterm SHP2 full-length (Thr2-Arg593) (Homo sapiens, UniProt Q06124)
T1 construct: 6His-Nterm SHP2 full-length (Thr2-Arg593, R&D system); 6His (N); purchased R&D system
T1 sequence (Q06124 2-593): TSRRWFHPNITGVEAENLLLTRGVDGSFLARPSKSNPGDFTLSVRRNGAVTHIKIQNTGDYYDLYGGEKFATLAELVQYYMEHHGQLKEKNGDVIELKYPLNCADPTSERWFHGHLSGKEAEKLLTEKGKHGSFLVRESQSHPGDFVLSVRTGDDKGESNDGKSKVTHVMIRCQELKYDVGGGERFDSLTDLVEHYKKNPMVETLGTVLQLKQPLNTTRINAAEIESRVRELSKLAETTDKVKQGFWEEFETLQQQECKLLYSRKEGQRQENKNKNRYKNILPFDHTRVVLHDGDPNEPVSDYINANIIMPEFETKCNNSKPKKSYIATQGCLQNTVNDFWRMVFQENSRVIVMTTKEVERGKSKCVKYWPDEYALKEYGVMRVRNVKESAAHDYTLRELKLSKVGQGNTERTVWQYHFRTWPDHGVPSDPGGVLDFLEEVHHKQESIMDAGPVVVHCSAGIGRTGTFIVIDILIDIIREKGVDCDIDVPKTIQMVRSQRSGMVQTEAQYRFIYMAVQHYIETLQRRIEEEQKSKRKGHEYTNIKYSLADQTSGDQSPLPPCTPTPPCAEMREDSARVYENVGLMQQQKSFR
Test: SHP2 Phosphatase Assay (DiFMUP fluorescence)
Format: biochemical
Settings: SHP2 0.2 nM pre-incubated with 100 nM bi-phosphorylated activating peptide; compound 1000-0.05 nM, 30 min pre-incubation; DiFMUP 20 µM, 45 min, room temperature; 10-concentration dose-response
Outline: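 SHP2 (0.2 nM) preactivated ≥10 min with 100 nM bis-phosphorylated peptide, then 30 min with compound (10 concentrations, 1000–0.05 nM) at room temperature, pH 7.2 HEPES buffer with DTT. DiFMUP (20 µM, added solution) reacted 45 min, pervanadate-stopped; fluorescence 350/450 nm. IC50 by 4-parameter logistic fit.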

IC50 [nM]	SMILES
21	COc1ccc2c(n1)CC1(CCN(c3nc(C)c(-c4cccc(F)c4F)n4nccc34)CC1)[C@@H]2N [Compound 221, (5S)-1'-[7-(2,3-difluorophenyl)-6-methyl-pyrazolo[1,5-a]pyrazin-4-yl]-2-methoxy-spiro[5,7-dihydrocyclopenta[b]pyridine-6,4'-piperidine]-5-amine]
4	Cc1nc(N2CCC3(CC2)Cc2ncccc2[C@H]3N)c2ccnn2c1-c1cc(F)ccc1F [Compound 195, (5S)-1'-[7-(2,5-difluorophenyl)-6-methyl-pyrazolo[1,5-a]pyrazin-4-yl]spiro[5,7-dihydrocyclopenta[b]pyridine-6,4'-piperidine]-5-amine]
3	Cc1nc(N2CCC3(CC2)Cc2ncccc2[C@H]3N)c2ccnn2c1-c1ccc(F)c(F)c1 [Compound 201, (5S)-1'-[7-(3,4-difluorophenyl)-6-methyl-pyrazolo[1,5-a]pyrazin-4-yl]spiro[5,7-dihydrocyclopenta[b]pyridine-6,4'-piperidine]-5-amine]
86	Cc1nc(N2CCC3(CC2)Cc2ncccc2[C@H]3N)c2ccnn2c1-c1ccn(C)c(=O)c1F [Compound 228, 4-[4-[(5S)-5-aminospiro[5,7-dihydrocyclopenta[b]pyridine-6,4'-piperidine]-1'-yl]-6-methyl-pyrazolo[1,5-a]pyrazin-7-yl]-3-fluoro-1-methyl-pyridin-2-one]
14	Cc1nccc(Sc2c(C)nc(N3CCC4(CC3)Cc3ncccc3[C@H]4N)c3ccnn23)c1F [Compound 229, (5S)-1'-[7-[(3-fluoro-2-methyl-4-pyridyl)sulfanyl]-6-methyl-pyrazolo[1,5-a]pyrazin-4-yl]spiro[5,7-dihydrocyclopenta[b]pyridine-6,4'-piperidine]-5-amine]
7	Cc1nc(N2CCC3(CC2)Cc2ncccc2[C@H]3N)c2ccnn2c1-c1ccc2c(c1)CCO2 [Compound 188, (5S)-1'-[7-(2,3-dihydrobenzofuran-5-yl)-6-methyl-pyrazolo[1,5-a]pyrazin-4-yl]spiro[5,7-dihydrocyclopenta[b]pyridine-6,4'-piperidine]-5-amine]
250	Cc1nc(N2CCC3(CC2)Cc2ncccc2[C@H]3N)c2ccnn2c1-c1cc(C(F)(F)F)ccc1F [Compound 187, (5S)-1'-[7-[2-fluoro-5-(trifluoromethyl)phenyl] -6-methyl-pyrazolo[1,5-a]pyrazin-4-yl]spiro[5,7-dihydrocyclopenta[b]pyridine-6,4'-piperidine]-5-amine]
14	Cc1nc(N2CCC3(CC2)Cc2ncccc2[C@H]3N)c2ccnn2c1-c1cccc2c1OCC2 [Compound 178, (5S)-1'-[7-(2,3-dihydrobenzofuran-7-yl)-6-methyl-pyrazolo[1,5-a]pyrazin-4-yl]spiro[5,7-dihydrocyclopenta[b]pyridine-6,4'-piperidine]-5-amine]
4	Cc1nc(N2CCC3(CC2)Cc2ncccc2[C@H]3N)c2ccnn2c1Sc1ccnc(N)c1Cl [Compound 232, (5S)-1'-[7-[(2-amino-3-chloro-4-pyridyl)sulfanyl]-6-methyl-pyrazolo[1,5-a]pyrazin-4-yl]spiro[5,7-dihydrocyclopenta[b]pyridine-6,4'-piperidine]-5-amine]
55	CC(=O)c1ccc(F)c(-c2c(C)nc(N3CCC4(CC3)Cc3ncccc3[C@H]4N)c3ccnn23)c1 [Compound 204, 1-[4-fluoro-3-[6-methyl-4-[(5S)-5-aminospiro [5,7-dihydrocyclopenta[b]pyridine-6,4'-piperidine]-1'-yl]pyrazolo[1,5-a]pyrazin-7-yl]phenyl]ethanone]

The remaining lines, values behind:

SMILES	IC50 [nM]
COc1ccc(F)c(-c2c(C)nc(N3CCC4(CC3)Cc3ncccc3[C@H]4N)c3ccnn23)c1 [Compound 31, (5S)-1'-[7-(2-fluoro-5-methoxy-phenyl)-6-methyl-pyrazolo[1,5-a]pyrazin-4-yl]spiro[5,7-dihydrocyclopenta[b]pyridine-6,4'-piperidine]-5-amine]	13
Cc1cnccc1-c1c(C)nc(N2CCC3(CC2)Cc2ncccc2[C@H]3N)c2ccnn12 [Compound 98, (5S)-1'-[6-methyl-7-(3-methyl-4-pyridyl)pyrazolo[1,5-a]pyrazin-4-yl]spiro [5,7-dihydrocyclopenta[b]pyridine-6,4'-piperidine] -5-amine formate]	145
Cc1nc(N2CCC3(CC2)Cc2cc(F)ccc2[C@H]3N)c2ccnn2c1-c1cnn(C)c1C [Compound 101, (1S)-1'-[7-(1,5-dimethylpyrazol-4-yl)-6-methyl-pyrazolo[1,5-a]pyrazin-4-yl]-5-fluoro-spiro[indane-2,4'-piperidine]-1-amine hydrochloride]	15
Cc1nccc(-c2c(C)nc(N3CCC4(CC3)Cc3ccncc3[C@H]4N)c3ccnn23)c1F [Compound 140, (7S)-1'-[7-(3-fluoro-2-methyl-4-pyridyl)-6-methyl-pyrazolo[1,5-a]pyrazin-4-yl]spiro[5,7-dihydrocyclopenta[c]pyridine-6,4'-piperidine]-7-amine]	7
Cc1nc(N2CCC3(CC2)Nc2ccccc2[C@H]3N)c2ccnn2c1-c1ccccc1F [Compound 153, (3R)-1'-[7-(2-fluorophenyl)-6-methyl-pyrazolo[1,5-a]pyrazin-4-yl]spiro[indoline-2,4'-piperidine]-3-amine hydrochloride]	15
COc1ccc2c(c1)[C@@H](N)C1(CCN(c3nc(C)c(-c4ccnc(C)c4F)n4nccc34)CC1)C2 [Compound 118, (1S)-1'-[7-(3-fluoro-2-methyl-4-pyridyl)-6-methyl-pyrazolo[1,5-a]pyrazin-4-yl]-6-methoxy-spiro [indane-2,4'-piperidine]-1-amine hydrochloride]	4
CCn1cc(-c2c(C)nc(N3CCC4(CC3)Cc3ncccc3[C@H]4N)c3ccnn23)cn1 [Compound 48, (5S)-1'-[7-(1-ethylpyrazol-4-yl)-6-methyl-pyrazolo[1,5-a]pyrazin-4-yl]spiro[5,7-dihydrocyclopenta[b]pyridine-6,4'-piperidine]-5-amine]	17
Cc1nc(C)c(-c2c(C)nc(N3CCC4(CC3)Cc3ncccc3[C@H]4N)c3ccnn23)s1 [Compound 161, (5S)-1'-[7-(2,4-dimethylthiazol-5-yl)-6-methyl-pyrazolo[1,5-a]pyrazin-4-yl]spiro [5,7-dihydrocyclopenta[b]pyridine-6,4'-piperidine]-5-amine hydrochloride]	29
Cc1nocc1-c1c(C)nc(N2CCC3(CC2)Cc2ccccc2[C@H]3N)c2ccnn12 [Compound 21, (1S)-1'-[6-methyl-7-(3-methylisoxazol-4-yl)pyrazolo[1,5-a]pyrazin-4-yl]spiro[indane-2,4'-piperidine]-1-amine]	58
COc1ccc2c(c1)CC1(CCN(c3nc(C)c(-c4ccnc(C)c4Cl)n4nccc34)CC1)[C@@H]2N [Compound 6, (1S)-1'-[7-(3-chloro-2-methyl-4-pyridyl)-6-methyl-pyrazolo[1,5-a]pyrazin-4-yl]-5-methoxy-spiro[indane-2,4'-piperidine]-1-amine]	8
Cc1nc(N2CCC3(CC2)Cc2ncccc2[C@H]3N)c2ccnn2c1-c1cncs1 [Compound 157, (5S)-1'-(6-methyl-7-thiazol-5-yl-pyrazolo[1,5-a]pyrazin-4-yl)spiro[5,7-dihydrocyclopenta[b]pyridine-6,4'-piperidine] -5-amine hydrochloride]	72
Cc1nc(N2CCC3(CC2)Cc2ncccc2[C@H]3N)c2ccnn2c1-c1ccc2c(c1)CCCO2 [Compound 167, (5S)-1'-(7-chroman-6-yl-6-methyl-pyrazolo[1,5-a]pyrazin-4-yl)spiro[5,7-dihydrocyclopenta[b]pyridine-6,4'-piperidine]-5-amine]	9
N[C@@H]1c2cccnc2CC12CCN(c1ncc(-c3cccc(F)c3Cl)n3nccc13)CC2 [Compound 87, (5 S)-1'-[7-(2-chloro-3-fluorophenyl)pyrazolo[1,5-a]pyrazin-4-yl]spiro [5,7-dihydrocyclopenta[b]pyridine-6,4'-piperidine] -5-amine hydrochloride]	22
COc1cccc(-c2cnc(N3CCC4(CC3)Cc3ncccc3[C@H]4N)c3ccnn23)c1F [Compound 85, (5S)-1'-[7-(2-fluoro-3-methoxyphenyl)pyrazolo[1,5-a]pyrazin-4-yl]spiro[5,7-dihydrocyclopenta[b]pyridine-6,4'-piperidine] -5-amine hydrochloride]	27
Cc1nc(N2CCC3(CC2)Cc2ncccc2[C@H]3N)c2ccnn2c1-c1ccccc1Cl [Compound 22, (5S)-1'-[7-(2-chlorophenyl)-6-methyl-pyrazolo[1,5-a]pyrazin-4-yl]spiro[5,7-dihydrocyclopenta[b]pyridine-6,4'-piperidine]-5-amine]	11
